Assay results reported in PubChem BioAssay (NCI).
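In this assay, cells in 96-well plates receive the compound at five concentrations for 48 hours. Endpoints are linearly interpolated between the surrounding concentrations. The concentration for 50% growth inhibition is given as GI50. TGI is the concentration that stops growth completely.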

Tests used:
Assay in all cases: NCI tumour cell line growth inhibition, 48 h
LOX IMVI melanoma = test system: LOX IMVI melanoma
IGROV1 ovarian = test system: IGROV1 ovarian
OVCAR-5 ovarian = test system: OVCAR-5 ovarian
SN12C renal = test system: SN12C renal
A498 renal = test system: A498 renal
RPMI-8226 leukemia = test system: RPMI-8226 leukemia
SF-295 CNS = test system: SF-295 CNS
HT29 colon = test system: HT29 colon
TK-10 renal = test system: TK-10 renal
K-562 leukemia = test system: K-562 leukemia

SMILES | GI50 (LOX IMVI melanoma) [µM] | TGI (LOX IMVI melanoma) [µM] | GI50 (IGROV1 ovarian) [µM] | TGI (IGROV1 ovarian) [µM] | GI50 (OVCAR-5 ovarian) [µM] | GI50 (SN12C renal) [µM] | TGI (SN12C renal) [µM] | GI50 (A498 renal) [µM] | TGI (A498 renal) [µM] | GI50 (RPMI-8226 leukemia) [µM] | TGI (RPMI-8226 leukemia) [µM] | GI50 (SF-295 CNS) [µM] | TGI (SF-295 CNS) [µM] | GI50 (HT29 colon) [µM] | TGI (HT29 colon) [µM] | GI50 (TK-10 renal) [µM] | TGI (TK-10 renal) [µM] | GI50 (K-562 leukemia) [µM] | TGI (K-562 leukemia) [µM] | TGI (OVCAR-5 ovarian) [µM]
O=C(NOCC1CC1)c1ccc(F)c(F)c1Nc1ccc(I)cc1Cl | 0.727 | 13.2 | 1.05 | 5.77 | 0.0764 | 1.63 | > 100 | 0.0639 | 0.492 | 1.97 | 9.48 | 2.63 | 44.6 | 0.112 | 11.1 | 1.13 | 18.6 | 2.55 | > 35.3 | 
O=S1(=O)C[C@@H](O)[C@H](O)CS1 |  | > 100 |  | > 100 |  |  | > 100 |  | > 100 |  | > 100 |  | > 100 |  | > 100 |  | > 100 |  | > 100 | > 100
O=C1CCC2(C=C(Br)C(=O)C(Br)=C2)O1 | 2.53 | 7.53 | 6.59 | 15.6 | 15 | 16.3 | 35.3 | 16.6 | 30.3 | 10.7 | 46 | 15.9 | 31.7 | 2.89 | 7.82 | 2.01 | 4.14 | 2.81 | 21.7 | 29.7
CC(=O)OCC1OC(n2c(=O)n(-c3ccccc3)c(=O)c3ccccc32)C(OC(C)=O)C(OC(C)=O)C1OC(C)=O (centres undefined) |  | > 100 |  | > 100 |  |  | > 100 |  | > 100 |  | > 100 |  | > 100 |  | > 100 |  | > 100 |  | > 100 | > 100
O=[N+]([O-])/C=C/c1c[nH]c2ccccc12 | 15.9 | 30.2 | 13.3 | 27.6 | 17.8 | 17.8 | 37.1 | 16.2 | 31.2 | 1.83 | 7.7 | 14 | 30.6 | 19.5 | 38.8 | 16.8 | 30.7 | 21.7 | 61 | 35.2
COc1nc(C)cc2c(=O)n(-c3ccccc3)n(CCCN3CCN(c4ccc(Cl)cc4)CC3)c(=O)c12 | > 50 | > 50 | > 50 | > 50 | > 50 | > 50 | > 50 | > 50 | > 50 | > 50 | > 50 | 29.2 | > 50 | > 50 | > 50 | > 50 | > 50 | 35 | > 50 | > 50
CCN(CC)CCCCCCCNc1c2ccc(Cl)cc2nc2ccc(OC)cc12 | 0.275 | 1.17 | 0.498 | 1.65 | 1.78 | 1.22 | 5.36 | 1.2 | 2.51 | 0.337 | 1.3 | 0.701 | 2.37 | 0.203 | 0.604 | 0.991 | 4.08 | 0.258 | 0.835 | 7.55
